This note sets out measurements from publication doi:10.1101/2024.08.13.607785v1 (biorxiv, 2024).

Where two headings read alike, the source gives them in different places.

What all share (experiment): biochemical
What all share (design): species or system human cell line lysate

Assay [1] addresses Serine/threonine-protein kinase PLK1 ; PLK1 ; P53350 (Homo sapiens, UniProt P53350).
For assay [2], the target named is Serine/threonine-protein kinase/endoribonuclease IRE1 ; ERN1 ; O75460 (Homo sapiens, UniProt O75460).
In assay [3] the target is Tyrosine-protein kinase Mer ; MERTK ; Q12866 (Homo sapiens, UniProt Q12866).
The target in assay [4] is Isoform 2 of Mitogen-activated protein kinase kinase kinase 20 ; MAP3K20 ; Q9NYL2-2 (Homo sapiens, UniProt Q9NYL2).
Assay [5] deals with Isoform 6 of Calcium/calmodulin-dependent protein kinase type II subun ; CAMK2G ; Q13555-6 (Homo sapiens, UniProt Q13555).
Assay [6] deals with Tyrosine-protein kinase JAK1 ; JAK1 ; P23458 (Homo sapiens, UniProt P23458).
The target in assay [7] is Tyrosine-protein kinase Fgr ; FGR ; P09769 (Homo sapiens, UniProt P09769).
The target in assay [8] is 3-phosphoinositide-dependent protein kinase 1 ; PDPK1 ; O15530 (Homo sapiens, UniProt O15530).
Assay [9] addresses Mitogen-activated protein kinase kinase kinase 2 ; MAP3K2 ; Q9Y2U5 (Homo sapiens, UniProt Q9Y2U5).
The target of assay [10] is Serine/threonine-protein kinase pim-2 ; PIM2 ; Q9P1W9 (Homo sapiens, UniProt Q9P1W9).
Assay [11] deals with Serine/threonine-protein kinase Sgk3 ; SGK3 ; Q96BR1 (Homo sapiens, UniProt Q96BR1).
Assay [12] has as its target Mitogen-activated protein kinase 1 ; MAPK1 ; P28482 (Homo sapiens, UniProt P28482).
Assay [13] concerns the target TGF-beta receptor type-1 ; TGFBR1 ; P36897 (Homo sapiens, UniProt P36897).
For assay [14], the target named is Serine/threonine-protein kinase Chk2 ; CHEK2 ; O96017 (Homo sapiens, UniProt O96017).
Assay [15] concerns the target Serine/threonine-protein kinase SIK2 ; SIK2 ; Q9H0K1 (Homo sapiens, UniProt Q9H0K1).
Assay [16] concerns the target Pyridoxal kinase ; PDXK ; O00764 (Homo sapiens, UniProt O00764).
The target of assay [17] is Casein kinase I isoform gamma-1 ; CSNK1G1 ; Q9HCP0 (Homo sapiens, UniProt Q9HCP0).
Assay [18] deals with Ribosomal protein S6 kinase alpha-4 ; RPS6KA4 ; O75676 (Homo sapiens, UniProt O75676).
Assay [19] addresses Dual specificity protein kinase TTK ; TTK ; P33981 (Homo sapiens, UniProt P33981).
The target in assay [20] is Casein kinase I isoform epsilon ; CSNK1E ; P49674 (Homo sapiens, UniProt P49674).
Assay [21] deals with Serine/threonine-protein kinase MRCK gamma ; CDC42BPG ; Q6DT37 (Homo sapiens, UniProt Q6DT37).
Assay [22] has as its target Mitogen-activated protein kinase kinase kinase 3 ; MAP3K3 ; Q99759 (Homo sapiens, UniProt Q99759).
The target of assay [23] is Serine/threonine-protein kinase ULK1 ; ULK1 ; O75385 (Homo sapiens, UniProt O75385).
The mark [24] stands for this setting: read-out: BAY-1143572 (10 µM) / %Intensity relative to DMSO.
[25] abbreviates: read-out: BAY-1251152 (10 µM) / %Intensity relative to DMSO.

Mitogen-activated protein kinase kinase kinase 3 ; MAP3K3 ; Q99759, sequence (Q99759 whole entry): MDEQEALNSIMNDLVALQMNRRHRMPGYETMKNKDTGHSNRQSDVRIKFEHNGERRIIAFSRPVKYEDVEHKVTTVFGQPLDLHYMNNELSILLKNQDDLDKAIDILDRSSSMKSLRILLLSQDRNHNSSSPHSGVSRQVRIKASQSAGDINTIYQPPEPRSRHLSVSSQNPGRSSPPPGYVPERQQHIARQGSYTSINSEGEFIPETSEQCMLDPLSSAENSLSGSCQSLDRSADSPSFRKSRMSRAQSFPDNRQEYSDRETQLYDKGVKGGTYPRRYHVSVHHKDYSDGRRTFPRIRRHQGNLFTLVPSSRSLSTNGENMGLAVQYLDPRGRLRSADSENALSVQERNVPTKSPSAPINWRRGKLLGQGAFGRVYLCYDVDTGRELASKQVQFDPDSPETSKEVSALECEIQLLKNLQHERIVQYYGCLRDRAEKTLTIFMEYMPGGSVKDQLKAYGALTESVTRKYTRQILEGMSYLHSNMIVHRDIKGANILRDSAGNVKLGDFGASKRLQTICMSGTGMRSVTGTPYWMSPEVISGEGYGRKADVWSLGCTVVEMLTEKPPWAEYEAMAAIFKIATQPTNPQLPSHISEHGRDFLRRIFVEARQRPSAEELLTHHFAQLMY
TGF-beta receptor type-1 ; TGFBR1 ; P36897, sequence (P36897 whole entry): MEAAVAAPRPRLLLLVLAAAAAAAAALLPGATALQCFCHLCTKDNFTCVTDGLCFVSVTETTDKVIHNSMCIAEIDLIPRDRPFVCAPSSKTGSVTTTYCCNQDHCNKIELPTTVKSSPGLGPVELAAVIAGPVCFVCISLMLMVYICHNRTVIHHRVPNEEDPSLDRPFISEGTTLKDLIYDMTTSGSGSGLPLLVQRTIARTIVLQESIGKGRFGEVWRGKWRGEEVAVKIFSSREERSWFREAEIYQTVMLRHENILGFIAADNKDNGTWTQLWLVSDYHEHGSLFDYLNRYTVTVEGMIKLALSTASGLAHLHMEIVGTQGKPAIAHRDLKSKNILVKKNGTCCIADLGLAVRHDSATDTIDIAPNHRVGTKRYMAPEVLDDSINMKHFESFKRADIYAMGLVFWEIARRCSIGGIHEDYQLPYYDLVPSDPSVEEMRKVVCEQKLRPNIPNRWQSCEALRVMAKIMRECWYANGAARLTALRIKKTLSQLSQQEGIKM
Serine/threonine-protein kinase Sgk3 ; SGK3 ; Q96BR1, sequence (Q96BR1 whole entry, one chain of several): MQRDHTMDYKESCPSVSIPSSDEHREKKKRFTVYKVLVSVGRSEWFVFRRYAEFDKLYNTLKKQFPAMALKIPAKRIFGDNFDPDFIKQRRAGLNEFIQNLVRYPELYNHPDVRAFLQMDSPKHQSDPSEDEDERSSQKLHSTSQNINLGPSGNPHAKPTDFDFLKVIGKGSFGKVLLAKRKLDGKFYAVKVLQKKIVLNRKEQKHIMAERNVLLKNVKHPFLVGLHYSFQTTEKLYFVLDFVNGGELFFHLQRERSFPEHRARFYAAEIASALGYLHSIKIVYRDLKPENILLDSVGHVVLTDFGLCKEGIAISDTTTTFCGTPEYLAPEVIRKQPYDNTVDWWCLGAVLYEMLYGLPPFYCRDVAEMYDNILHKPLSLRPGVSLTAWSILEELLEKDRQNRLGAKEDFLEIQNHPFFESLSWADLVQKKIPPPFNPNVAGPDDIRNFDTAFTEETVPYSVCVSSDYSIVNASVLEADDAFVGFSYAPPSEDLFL
3-phosphoinositide-dependent protein kinase 1 ; PDPK1 ; O15530, sequence (O15530 whole entry): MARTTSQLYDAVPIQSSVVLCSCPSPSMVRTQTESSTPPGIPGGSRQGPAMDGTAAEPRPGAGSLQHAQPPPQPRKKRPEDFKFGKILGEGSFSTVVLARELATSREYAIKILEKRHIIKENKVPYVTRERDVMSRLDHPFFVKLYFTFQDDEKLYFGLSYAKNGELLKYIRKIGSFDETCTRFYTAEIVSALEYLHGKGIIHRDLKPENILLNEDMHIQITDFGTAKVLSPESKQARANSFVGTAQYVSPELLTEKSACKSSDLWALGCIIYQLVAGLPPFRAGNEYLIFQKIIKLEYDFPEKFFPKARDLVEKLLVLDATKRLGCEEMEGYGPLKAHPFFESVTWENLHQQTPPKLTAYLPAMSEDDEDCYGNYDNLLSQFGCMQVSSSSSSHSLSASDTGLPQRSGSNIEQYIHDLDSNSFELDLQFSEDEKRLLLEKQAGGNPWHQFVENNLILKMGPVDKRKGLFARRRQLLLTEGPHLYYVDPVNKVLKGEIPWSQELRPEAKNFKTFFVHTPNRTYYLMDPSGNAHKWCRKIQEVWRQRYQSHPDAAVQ
Casein kinase I isoform epsilon ; CSNK1E ; P49674, sequence (P49674 whole entry, canonical isoform): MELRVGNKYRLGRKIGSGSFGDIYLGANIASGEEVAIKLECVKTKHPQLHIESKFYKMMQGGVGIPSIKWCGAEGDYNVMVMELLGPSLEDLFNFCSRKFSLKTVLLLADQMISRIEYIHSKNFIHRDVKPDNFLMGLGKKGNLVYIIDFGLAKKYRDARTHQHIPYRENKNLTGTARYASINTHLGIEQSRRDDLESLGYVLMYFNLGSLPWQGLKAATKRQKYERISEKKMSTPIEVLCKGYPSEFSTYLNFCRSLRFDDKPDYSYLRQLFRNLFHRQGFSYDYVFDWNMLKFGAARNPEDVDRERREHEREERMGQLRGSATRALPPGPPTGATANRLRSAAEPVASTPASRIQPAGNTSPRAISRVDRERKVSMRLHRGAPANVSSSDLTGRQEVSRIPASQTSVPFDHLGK
Serine/threonine-protein kinase/endoribonuclease IRE1 ; ERN1 ; O75460, sequence (O75460 whole entry, one chain of several): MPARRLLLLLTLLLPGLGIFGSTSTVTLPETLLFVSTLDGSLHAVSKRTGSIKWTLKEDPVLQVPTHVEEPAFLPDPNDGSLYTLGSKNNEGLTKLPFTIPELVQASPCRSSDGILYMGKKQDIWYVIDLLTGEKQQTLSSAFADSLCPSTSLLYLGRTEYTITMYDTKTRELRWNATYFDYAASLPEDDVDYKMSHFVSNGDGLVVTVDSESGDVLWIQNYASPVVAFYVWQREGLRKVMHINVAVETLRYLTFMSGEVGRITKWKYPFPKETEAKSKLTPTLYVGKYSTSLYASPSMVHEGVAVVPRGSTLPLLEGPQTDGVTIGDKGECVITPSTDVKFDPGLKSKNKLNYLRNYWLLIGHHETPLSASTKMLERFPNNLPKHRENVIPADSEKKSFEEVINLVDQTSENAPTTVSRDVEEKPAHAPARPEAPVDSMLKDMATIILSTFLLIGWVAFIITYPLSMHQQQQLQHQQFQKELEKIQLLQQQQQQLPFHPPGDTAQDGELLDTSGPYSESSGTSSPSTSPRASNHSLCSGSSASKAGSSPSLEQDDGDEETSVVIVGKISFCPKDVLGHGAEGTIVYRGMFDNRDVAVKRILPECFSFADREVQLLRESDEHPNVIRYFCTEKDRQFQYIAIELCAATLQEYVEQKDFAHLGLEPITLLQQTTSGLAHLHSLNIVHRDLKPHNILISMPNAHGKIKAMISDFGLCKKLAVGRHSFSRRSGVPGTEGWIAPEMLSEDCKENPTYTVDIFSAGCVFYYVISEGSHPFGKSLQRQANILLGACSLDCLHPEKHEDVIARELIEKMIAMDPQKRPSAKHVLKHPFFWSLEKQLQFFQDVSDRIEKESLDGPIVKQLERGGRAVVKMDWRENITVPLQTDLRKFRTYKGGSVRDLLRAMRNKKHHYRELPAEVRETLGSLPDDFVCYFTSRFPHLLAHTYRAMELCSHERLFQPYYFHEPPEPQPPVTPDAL
Serine/threonine-protein kinase SIK2 ; SIK2 ; Q9H0K1, sequence (Q9H0K1 whole entry, one chain of several): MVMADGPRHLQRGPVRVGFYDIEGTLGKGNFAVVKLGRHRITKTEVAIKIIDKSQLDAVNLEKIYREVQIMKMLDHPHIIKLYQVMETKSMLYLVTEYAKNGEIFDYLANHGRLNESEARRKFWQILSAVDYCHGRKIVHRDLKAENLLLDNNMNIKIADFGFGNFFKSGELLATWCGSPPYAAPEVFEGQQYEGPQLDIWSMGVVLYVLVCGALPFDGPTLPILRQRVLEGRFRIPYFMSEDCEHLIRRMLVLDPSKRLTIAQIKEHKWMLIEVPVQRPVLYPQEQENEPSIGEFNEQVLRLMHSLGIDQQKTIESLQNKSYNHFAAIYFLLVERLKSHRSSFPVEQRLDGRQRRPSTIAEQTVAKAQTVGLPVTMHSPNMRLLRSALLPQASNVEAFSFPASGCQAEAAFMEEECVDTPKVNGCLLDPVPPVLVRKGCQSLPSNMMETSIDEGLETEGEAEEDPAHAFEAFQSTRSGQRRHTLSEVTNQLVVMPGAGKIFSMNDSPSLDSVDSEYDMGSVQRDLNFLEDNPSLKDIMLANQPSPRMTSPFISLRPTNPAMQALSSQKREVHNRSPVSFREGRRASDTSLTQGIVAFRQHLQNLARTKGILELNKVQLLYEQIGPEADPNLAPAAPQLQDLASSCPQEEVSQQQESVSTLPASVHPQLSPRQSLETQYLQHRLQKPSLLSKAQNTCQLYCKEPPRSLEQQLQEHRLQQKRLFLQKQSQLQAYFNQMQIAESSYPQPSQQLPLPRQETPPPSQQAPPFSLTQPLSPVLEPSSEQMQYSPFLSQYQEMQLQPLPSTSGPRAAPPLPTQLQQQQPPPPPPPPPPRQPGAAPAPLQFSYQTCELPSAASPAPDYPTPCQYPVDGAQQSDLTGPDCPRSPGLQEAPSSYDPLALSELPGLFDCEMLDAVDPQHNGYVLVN
Serine/threonine-protein kinase pim-2 ; PIM2 ; Q9P1W9, sequence (Q9P1W9 whole entry, one chain of several): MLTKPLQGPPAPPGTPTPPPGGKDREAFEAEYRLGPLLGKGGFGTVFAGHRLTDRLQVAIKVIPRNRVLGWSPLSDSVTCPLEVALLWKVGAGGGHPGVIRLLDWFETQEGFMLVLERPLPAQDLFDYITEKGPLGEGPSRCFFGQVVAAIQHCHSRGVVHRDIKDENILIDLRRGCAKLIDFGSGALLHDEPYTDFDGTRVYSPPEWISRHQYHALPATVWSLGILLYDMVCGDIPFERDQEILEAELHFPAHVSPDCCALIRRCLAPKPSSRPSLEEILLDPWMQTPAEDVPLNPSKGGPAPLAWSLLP

As for `COc1cc(F)ccc1-c1ncnc(Nc2cccc(C[S@](C)(=N)=O)c2)n1` [BAY-1143572], the remaining activity at 10 µM in assay [1] (setting [24]) is 104%; in [2] (setting [24]), 133%; in [3] (setting [24]) it was 86.5%; in assay [4] (setting [24]) it was 65.2%; in assay [5] (setting [24]), 105%; in [6] (setting [24]) it was 104%. Also, the remaining activity at 10 µM in [7] (setting [24]) was 96.5%; in assay [8] (setting [24]) it was 114%; in [9] (setting [24]), 106%; in assay [10] (setting [24]), 132%; in [11] (setting [24]) it was 148%; in assay [12] (setting [24]) it was 112%. Further, the remaining activity at 10 µM came out at 115% in assay [13] (setting [24]); 116% in [14] (setting [24]); 102% in assay [15] (setting [24]); 139% in [16] (setting [24]); 175% in assay [17] (setting [24]); 119% in assay [18] (setting [24]). Moreover, the remaining activity at 10 µM in assay [19] (setting [24]) turned out to be 86.7%; in assay [20] (setting [24]), 111%; in [21] (setting [24]), 102%; in [22] (setting [24]), 120%; in assay [23] (setting [24]) it was 132%.

Consider `COc1cc(F)ccc1-c1cc(Nc2cc(CS(C)(=N)=O)ccn2)ncc1F` (stereo not shown) [BAY-1251152], for which the remaining activity at 10 µM in assay [1] (setting [25]) stood at 96.8%; in assay [2] (setting [25]), 131%; in assay [3] (setting [25]), 52.5%; in assay [4] (setting [25]), 81.6%; in assay [5] (setting [25]) it was 94.9%; in assay [6] (setting [25]), 110%. The remaining activity at 10 µM in [7] (setting [25]) came to 97.1%; in assay [8] (setting [25]), 104%; in [9] (setting [25]), 103%; in assay [10] (setting [25]) it was 102%; in [11] (setting [25]), 139%; in assay [12] (setting [25]), 105%. Moreover, the remaining activity at 10 µM in assay [13] (setting [25]) was 114%; in assay [14] (setting [25]), 106%; in assay [15] (setting [25]), 106%; in assay [16] (setting [25]) it was 119%; in [17] (setting [25]), 163%; in assay [18] (setting [25]), 104%. The remaining activity at 10 µM in assay [19] (setting [25]) came out at 82.1%; in assay [20] (setting [25]), 101%; in assay [21] (setting [25]) it was 103%; in assay [22] (setting [25]), 114%; in assay [23] (setting [25]), 145%.
